The test system of this test is CEM cells HIV-1 protection, formazan growth assay. The test can be described thus: NCI AIDS Antiviral Assay. As to conditions: for IC50: measured here: growth of uninfected CEM cells. In outline:
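Human CEM cells, uninfected and HIV-1-infected, received five drug concentrations, and growth was read by soluble formazan assay. Compounds giving at least 50% protection were retested; reproducible 100% protection defined confirmed active.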

Data on 56 molecules can be found in PubChem BioAssay AID179 (DTP/NCI, 2004).

Active and inactive are the calls of the source.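 How the source made its calls: active means compounds giving half or more protection of infected cells from virus-caused growth loss, again on retest; inactive means the rest.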

By EC50 is commonly meant the concentration needed to bring the measured effect to its halfway point. The IC50 is the point on the concentration scale where inhibition reaches its midpoint. Lower therefore signals greater potency in that assay. For `O=Nc1c(S(=O)(=O)O)cc2cc(S(=O)(=O)O)ccc2c1O`, the EC50 was > 200 µM and the IC50 is > 200 µM.
For `CCN(CC)CCN(C(=O)c1ccc(F)cc1)c1ccccc1N`, the EC50 was > 200 µM and the IC50 is > 200 µM.
With `COc1cccc(C2c3cc4c(cc3OC(C)(O)C2C)OCO4)c1O` (stereo not given), the EC50 was > 200 µM and the IC50 came to 0.646 µM.
Taken in the same sequence, the figures for `CC(C)(C)OC(=O)N1N=NC2C1C1CC(OCc3ccccc3)(OCc3ccccc3)C2O1` (stereo not given) were > 15.8 µM and > 15.8 µM.
As for `CO[C@@H]1CCC=C(C=O)O1`, the outcome was inactive.
Same read-out and setting: as for `c1ccc(-c2nc3sc(-c4ccccn4)nc3s2)nc1`, the entry is “inactive”.
Same read-out and setting: as for `O/N=C1\CCCC\C1=C/c1ccccc1`, the entry is “inactive”.
`CCOC(=O)C1SC(=Nc2ccc(Cl)cc2)N=C1C` (stereo not given): the EC50 is > 87.1 µM and the IC50 is > 87.1 µM.
Turning to `COc1nc2ccc(COc3ccc(C(=O)O)cc3)cc2nc1OC`, the EC50 is > 200 µM and the IC50 stood at 132 µM.
Taken in the same sequence, the figures for `C=CCN(N=O)C(=O)N(CCCC(NC(C)=O)C(=O)NCc1ccccc1)Cc1ccccc1` (stereo not given) were > 40.7 µM and > 40.7 µM.
The corresponding values for `Cc1ccc2nsnc2c1[N+](=O)[O-]` are > 257 µM and > 257 µM.
The corresponding values for `Cc1cccc2c1c1ccc3c(c1n2C)C(=O)C=CC3=O` are > 18.2 µM and 9.77 µM.
As to `c1ccc(C2(c3ccccc3)SCCCS2)cc1`, the EC50 is > 19.1 µM and the concentration for half-maximal inhibition (IC50) was > 19.1 µM.
Consider `Nc1ccc(S(=O)(=O)N/N=C/c2ccc3c(c2)OCO3)cc1`, for which the EC50 was > 81.3 µM and the concentration for half-maximal inhibition (IC50) is > 81.3 µM.
Consider `C=C1C(C(=O)OC)[C@H]1C(=O)OC` (stereo not given in full), for which the EC50 is 5.5 µM and the concentration for half-maximal inhibition (IC50) was > 200 µM.
Consider `CCOC(=O)C1Oc2ccc([N+](=O)[O-])c3c2C1(O)CCC3` (stereo not given), for which the outcome was inactive.
As to `Cc1ccc(S(=O)(=O)N2CC(O)C=Cc3ccccc32)cc1` (stereo not given), the EC50 was > 200 µM and the IC50 is 3.16 µM.
Taken in the same sequence, the figures for `N#CCC(C#N)N1CCOCC1` (stereo not given) were > 200 µM and > 200 µM.
Taken in the same sequence, the figures for `CN(C)C1=CC(=O)c2ccccc2C12CO2` (stereo not given) were > 234 µM and 41.7 µM.
In the case of `CCC1CN2CCc3cc(OC)c(OC)cc3C2CC1CC1c2cc(OC)c(OC)cc2CCN1C(=O)C1CCCN1` (stereo not given), the outcome was inactive.
Regarding `Cn1c(=O)cc(CNc2ccc(-c3ccccc3)cc2)c2ccccc21`, the EC50 was > 200 µM and the half-inhibitory concentration (IC50) stood at 75.9 µM.
The corresponding values for `CC(=O)NC1=C(C)C(=O)c2c(nc3n2CCC3O)C1=O` (stereo not given) are > 200 µM and 1.58 µM.
The corresponding values for `O=C(CC(=O)C(=O)CC(=O)OCc1ccccc1)OCc1ccccc1` are > 105 µM and 89.1 µM.
The corresponding values for `CC1(C)CCCOc2cccc(c2)OCCCC(C)(C)C1=O` are > 200 µM and > 200 µM.
Take `Brc1cccc(C2ON=C(c3ccccc3)N2C23CC4CC(CC(C4)C2)C3)c1` (stereo not given): the EC50 was > 200 µM and the concentration for half-maximal inhibition (IC50) is > 200 µM.
As to `O=C1NN(c2ccccc2)[C@@H]2CCCC[C@H]12`, the EC50 is > 437 µM and the IC50 was > 437 µM.
Take `CNC(=O)c1ccccc1CNC(=S)Nc1cccc(C)c1`: the EC50 is > 200 µM and the IC50 is > 200 µM.
Take `O=C(CCCN1CCC2(CC1)C(=O)NCN2c1ccccc1)c1ccccc1`: the EC50 is > 200 µM and the concentration for half-maximal inhibition (IC50) is 34.7 µM.
The corresponding values for `O=C(O)CC12C3C4C5C3C1C5C42` (stereo not given) are > 575 µM and > 575 µM.
Taken in the same sequence, the figures for `CCN1CCC(O)(c2ccc(C)cc2)C(C(=O)c2ccc(C)cc2)C1` (stereo not given) were > 162 µM and 11.7 µM.
Take `CC(Cl)CC(=O)OCC1CCCN2CCCCC12` (stereo not given): the EC50 is > 200 µM and the 50% inhibitory concentration (IC50) was > 200 µM.
Turning to `O=C(O)c1ccccc1S(=O)O`, the EC50 is > 200 µM and the half-inhibitory concentration (IC50) is > 200 µM.
As for `C/C=C(C)/C=C/CC(C)CCC=C(C)C` (stereo not given), the EC50 was > 200 µM and the half-maximal inhibitory concentration (IC50) turned out to be 85.1 µM.
The corresponding values for `Brc1ccc(N2N=NC3CNCC32)cc1` (stereo not given) are > 26.9 µM and > 26.9 µM.
Taken in the same sequence, the figures for `C/C(=N\N)C(CN1CCOCC1)C(c1ccccc1)c1c(O)c2ccccc2oc1=O` (stereo not given) were > 89.1 µM and 85.1 µM.
Turning to `CN=C(N)c1ccc(N=C(N)c2cccc(C(N)=Nc3ccc(C(N)=NC)cc3)c2)cc1`, the EC50 was > 200 µM and the 50% inhibitory concentration (IC50) is > 200 µM.
For `O=C1C(CN2CCCCC2)CCC1CN1CCCCC1` (stereo not given), the EC50 was > 200 µM and the IC50 turned out to be 8.13 µM.
On to `NS(=O)(=O)c1ccc(NC(=O)COC(=O)c2cccc3c(=O)c4ccccc4[nH]c23)cc1`, for which the outcome was inactive.
With `O=c1cc(-c2ccccc2)oc2cc(OCCSCCCCCCCCCCSCCOc3ccc4c(=O)cc(-c5ccccc5)oc4c3)ccc12`, the EC50 was > 1.95 µM and the IC50 is > 1.95 µM.
In the case of `Nc1ncccc1N1C(=O)c2ccccc2C1=O`, the EC50 was > 200 µM and the concentration for half-maximal inhibition (IC50) is > 200 µM.
On to `CC1=NN(C(=O)c2ccncc2)C(=O)C1`, for which the EC50 is > 200 µM and the concentration for half-maximal inhibition (IC50) was > 200 µM.
For the molecule `CCOP(=O)(OCC)/C(=C/n1c(=S)[nH]c2ccc([N+](=O)[O-])cc21)C(=O)OC`, the EC50 was > 200 µM and the IC50 was found to be 115 µM.
Taken in the same sequence, the figures for `O=C(CC1=NC2NN(c3ccccc3)C(=O)C2=C1CC(=O)c1cccc([N+](=O)[O-])c1)c1cccc([N+](=O)[O-])c1` (stereo not given) were > 129 µM and > 129 µM.
As to `CN1CCN(c2n[nH]c(=O)c3c2nnn3C2CCCCC2)CC1`, the EC50 was > 200 µM and the IC50 was > 200 µM.
For the molecule `COC1(CC2(OC)C=CC(=O)O2)C=CC(=O)O1` (stereo not given), the EC50 is > 105 µM and the IC50 is 55 µM.
The corresponding values for `O=c1c(SCc2ccc(Br)cc2)c(SCc2ccc(Br)cc2)cnn1-c1ccccc1` are > 12.6 µM and 6.46 µM.
Taken in the same sequence, the figures for `O=C(Nc1ccccc1C(F)(F)F)OCCN1CCNC1=S` were > 200 µM and > 200 µM.
As to `COCC(C)(C)N=CN1Cc2cc3ccccc3nc2C1`, the EC50 is > 178 µM and the half-maximal inhibitory concentration (IC50) was > 178 µM.
As for `C=C(C)C12CC3CC(/C(=N/O)C(C1)/C3=N\O)[C@@]2(C)O` (stereo not given in full), the EC50 is > 355 µM and the IC50 was > 355 µM.
With `c1ccc2nc([Se][Se]c3ccc4ccccc4n3)ccc2c1`, the EC50 is > 9.12 µM and the IC50 is 4.17 µM.
Taken in the same sequence, the figures for `COc1cc2c(cc1O)C1C(O2)c2cc3c(cc2OC1(C)C)OC(C)(C)CC3` (stereo not given) were > 200 µM and 28.8 µM.
Regarding `CN(CCSSCCN(C)/N=C/c1ccccc1)/N=C/c1ccccc1`, the EC50 was > 200 µM and the IC50 is > 200 µM.
For the molecule `N#Cc1nc(CN2C(=O)c3ccccc3C2=O)oc1N`, the EC50 is 5.89 µM and the half-maximal inhibitory concentration (IC50) was > 200 µM.
The corresponding values for `O=C(CSc1nnc(-c2ccc(N=Cc3ccc(Cl)cc3)cc2)o1)Nc1ccc(Cl)cc1Cl` are > 34.7 µM and 25.1 µM.
For `CCOC(=O)Cn1c(=O)c2nc(SC)sc2n(CC)c1=S`, the outcome was inactive.
As to `CC(C)(C)OC(=O)N[C@H]1CCN(C2CCCCC2)C1=O`, the EC50 was > 200 µM and the IC50 is > 200 µM.
